# Test results taken from patent US8765907B2, “Production and use of antitumoral antibiotic and insecticidal cyclodepsipeptides” (Geomar Helmholtz-Zentrum fur Ozeanforschung Kiel, priority 2009, dated 2014).
# Tests used:
# [1] = tested on: RXF486L (kidney tumour cell line); assay: Anti-proliferative effect (propidium iodide fluorescence assay), RXF486L; format: cell-based, human
# Method: (§1) Xenobovide A, B and C inhibited the proliferation of all six tested human tumour cell lines: GXF251L (gastric tumour cell line), LXF529L (lung tumour cell line), MAXF401NL (breast cancer cell line), MEXF462NL (melanoma cell line), PAXF1657L (pancreas tumour cell line) and RXF486L (kidney tumour cell line).
# (§2) The anti-proliferative effect was determined according to Dengler et al. (1995, Development of a propidium iodide fluorescence assay for proliferation and cytoxicity assay. Anti-Cancer Drugs 6:522-532).
# [2] = tested on: PAXF1657L (pancreas tumour cell line); assay: Anti-proliferative effect (propidium iodide fluorescence assay), PAXF1657L; format: cell-based, human
# Method: as §1, §2
# [3] = tested on: LXF529L (lung tumour cell line); assay: Anti-proliferative effect (propidium iodide fluorescence assay), LXF529L; format: cell-based, human
# Method: as §1, §2
# [4] = tested on: MEXF462NL (melanoma cell line); assay: Anti-proliferative effect (propidium iodide fluorescence assay), MEXF462NL; format: cell-based, human
# Method: as §1, §2
# [5] = tested on: GXF251L (gastric tumour cell line); assay: Anti-proliferative effect (propidium iodide fluorescence assay), GXF251L; format: cell-based, human
# Method: as §1, §2
# [6] = tested on: MAXF401NL (breast cancer cell line); assay: Anti-proliferative effect (propidium iodide fluorescence assay), MAXF401NL; format: cell-based, human
# Method: as §1, §2
# [7] = tested on: larvae of the wax moth; assay: Insecticidal effect, oral toxicity in feed; format: in vivo; details: added to feed, 1 mg substance/mL solution, five larvae per box, 35° C., six days, four repeated experiments
# Method: The insecticidal effect was tested against the larvae of the wax moth, a pathogen in beekeeping. […] To test the oral toxicity, 1 mg substance/mL was dissolved in a 50% aqueous ethanol solution. Five larvae each were transferred into a plastic box (2 cm in diameter) and fed with 1 g food mixture (0.8 mL substance solution, 0.2 mL glycerine (86%) and 1 g wheat bran). The control group was fed with 1 g food mixture without addition of substance (0.4 mL aq. dest., 0.4 mL ethanol, 0.2 mL glycerine (86%) and 1 g wheat bran). The incubation of the larvae was at 35° C. for six days. Subsequently, the dead larvae were counted.
# [8] = target: glycogen synthase kinase 3beta (Homo sapiens, UniProt P49841); assay: Inhibition of glycogen synthase kinase 3beta (Kinase-Glo luminescent assay); format: biochemical
# Excerpt: Xenobovide A and B, in a concentration of 16.3 μMol and 15.6 μMol, respectively, inhibited the glycogen synthase kinase 3beta by 21% and 43%, respectively. The performance was according to Baki et al. (2007, A high throughput luminescent assay for glycogen synthase kinase-3beta inhibitors. Assay and Drug Development Technologies. 5:75-83) using the kinase-Glo Luminescent Kinase Assay Kit of the company Promega.
# [9] = target: acetylcholine esterase; details: read-out: IC50-value, acetylcholine esterase
# Method: Testing was performed according to Birman (1985, Determination of acetylcholinesterase activity by a new chemiluminescence assay with natural substrate. Biochemical Journal. 225:825-828).
# [10] = target: phosphodiesterase (PDE-4B2) (Homo sapiens, UniProt Q07343); assay: Inhibition of phosphodiesterase PDE-4B2; format: biochemical; details: 163 μg/mL
# Method: (§3) Xenobovide A in a concentration of 163 μg/mL inhibits the phosphodiesterase (PDE-4B2) by 46%. This enzyme test was carried out according to Hohmann et al. (2009, Caboxamycin, a new antibiotic of the benzoxazole family produced by the deep-sea strain Streptomyces sp. NTK 937. The Journal of Antibiotics. 62:99-104).
# [11] = target: T1, Protein Tyrosine Phosphatase 1B (PTP1B) (Homo sapiens, UniProt P18031); assay: Inhibition of protein tyrosine phosphatase 1B; format: biochemical; details: 26.1 μMol
# T1 sequence (P18031 1-435): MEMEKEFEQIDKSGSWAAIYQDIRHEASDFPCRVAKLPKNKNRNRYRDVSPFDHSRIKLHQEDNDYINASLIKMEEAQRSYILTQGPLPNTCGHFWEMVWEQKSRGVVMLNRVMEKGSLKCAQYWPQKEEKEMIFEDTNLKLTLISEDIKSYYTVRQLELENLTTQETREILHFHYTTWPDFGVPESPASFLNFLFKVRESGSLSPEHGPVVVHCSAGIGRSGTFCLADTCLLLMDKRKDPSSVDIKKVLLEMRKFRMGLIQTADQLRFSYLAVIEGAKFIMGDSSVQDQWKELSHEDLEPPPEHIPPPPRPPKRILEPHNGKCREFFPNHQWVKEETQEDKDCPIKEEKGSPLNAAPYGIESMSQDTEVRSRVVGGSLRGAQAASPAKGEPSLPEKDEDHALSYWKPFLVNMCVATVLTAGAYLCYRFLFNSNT
# Method: as §3, with “26.1 μMol” for “163 μg/mL”, “protein tyrosine phosphotase 1B (PTB1B)” for “phosphodiesterase (PDE-4B2)”, “59%.” for “46%.”
# Chain of glycogen synthase kinase 3beta (P49841 whole entry, species assumed): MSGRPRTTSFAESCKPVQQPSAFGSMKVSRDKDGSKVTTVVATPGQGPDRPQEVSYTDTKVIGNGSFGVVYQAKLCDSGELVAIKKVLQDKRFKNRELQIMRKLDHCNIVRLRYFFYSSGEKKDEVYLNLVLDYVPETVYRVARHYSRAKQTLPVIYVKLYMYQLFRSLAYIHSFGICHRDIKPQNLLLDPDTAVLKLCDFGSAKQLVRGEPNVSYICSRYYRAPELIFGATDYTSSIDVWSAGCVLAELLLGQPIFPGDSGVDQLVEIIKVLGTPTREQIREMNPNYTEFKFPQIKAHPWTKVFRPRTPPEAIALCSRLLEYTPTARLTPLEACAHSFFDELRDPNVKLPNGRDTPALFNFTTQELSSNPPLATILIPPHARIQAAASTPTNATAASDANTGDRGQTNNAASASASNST
# Chain of phosphodiesterase (PDE-4B2) (Q07343 1-564 isoform Q07343-2, species assumed): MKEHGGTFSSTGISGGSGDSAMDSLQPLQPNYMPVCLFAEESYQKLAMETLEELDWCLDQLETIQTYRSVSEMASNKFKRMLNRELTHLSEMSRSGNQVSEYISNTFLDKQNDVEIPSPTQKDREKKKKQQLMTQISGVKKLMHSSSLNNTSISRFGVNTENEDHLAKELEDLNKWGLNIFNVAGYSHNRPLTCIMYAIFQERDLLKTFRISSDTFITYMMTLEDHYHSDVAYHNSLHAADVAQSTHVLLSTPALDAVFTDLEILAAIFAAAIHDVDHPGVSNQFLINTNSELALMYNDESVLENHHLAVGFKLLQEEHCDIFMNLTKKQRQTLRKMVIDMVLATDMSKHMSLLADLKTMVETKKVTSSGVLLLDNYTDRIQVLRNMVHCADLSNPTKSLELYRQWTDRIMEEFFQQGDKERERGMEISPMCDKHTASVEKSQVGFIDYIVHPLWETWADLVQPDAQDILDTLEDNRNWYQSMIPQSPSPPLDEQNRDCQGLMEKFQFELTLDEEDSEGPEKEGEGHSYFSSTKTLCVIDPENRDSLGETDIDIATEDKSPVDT
SMILES,IC50 [1] [µM],IC50 [2] [µM],IC50 [3] [µM],IC50 [4] [µM],IC50 [5] [µM],IC50 [6] [µM],insecticidal effect (dead larvae) [7],inhibition of glycogen synthase kinase 3beta ([8]; 15.6 μMol) [%],IC50 [9] [µM],inhibition at 163 µg/mL [10] [%],inhibition of protein tyrosine phosphatase 1B [11] [%],inhibition of glycogen synthase kinase 3beta ([8]; 16.3 μMol) [%]
"CCCCC(C)CC(=O)N[C@@H]1C(=O)N[C@@H](C)C(=O)NC(CC(C)C)C(=O)NC(CC(C)C)C(=O)NC(CC(C)C)C(=O)NC(CC(C)C)C(=O)N[C@@H](C)C(=O)O[C@@H]1C (single isomer, unassigned) [Xenobovide B]",14.5,2.9,9.7,5.3,2.5,3.2,death of all larvae,43,–,–,–,–
"CCCCC(C)CC(=O)N[C@@H]1C(=O)N[C@@H](C)C(=O)NC(CC(C)C)C(=O)NC(CC(C)C)C(=O)NC(CC(C)C)C(=O)NC(CC(C)C)C(=O)N[C@@H](C)C(=O)O[C@@H]1C (single isomer, unassigned) [Xenobovide C]",7.6,10.3,7.8,9.4,3,8.5,death of all larvae,–,–,–,–,–
"CCCCC(C)CC(=O)N[C@@H]1C(=O)N[C@@H](C)C(=O)NC(CC(C)C)C(=O)NC(CC(C)C)C(=O)NC(CC(C)C)C(=O)NC(CC(C)C)C(=O)N[C@@H](C)C(=O)O[C@@H]1C (single isomer, unassigned) [Xenobovide A]",12,3.5,8.5,2.7,1.6,2.1,death of all larvae,–,53.6,46,59,21
